In patent US11426441B2, “Composition comprising protein phosphatase 1 inhibitory peptide for treating vascular diseases” (BethphaGen Inc., priority 2016, dated 2022):
No end group written: not given here.

Experiments:
RASMCs = experiment: In vitro cell scratch assay (RASMC migration); assay type: cell-based, rat; conditions: 3 μM peptide
Description: RASMCs isolated from the thoracic aorta were cultured in DMEM supplemented with 0.1% (v/v) FBS (Contractile) or in DMEM supplemented with 10% (v/v) FBS (Synthetic) in the presence of 3 μM of control peptide (Con; SEQ ID NO: 23) or ψPLB-SE peptide (SEQ ID NO: 2). Alternatively, RASMC cultured in DMEM supplemented with 0.1% (v/v) FBS were treated with 10 ng/ml of PDGF-BB (R&D Systems) (Synthetic) in the presence of 3 μM control or ψPLB-SE peptide. A region of the RASMC layer was removed by scratching the plate with a sterile 200 μL pipette tip. The cells were incubated for 12 hours or 24 hours and then observed under an 1×80 microscope (Olympus). The distance traveled by the cells was measured using MetaMorph software.

SERCA2a = experiment: Aorta ex vivo organ culture, SERCA2a western blotting; assay type: cell-based; conditions: ex vivo culture of rat thoracic aorta, injury by scratching
Description: A rat thoracic aorta was harvested and incubated in RPMI-1640 medium containing 20 mM HEPES, 2 mM L-glutamine, 100 IU/mL penicillin, and 100 μg/mL streptomycin. The adventitia was removed, and the aorta was cut longitudinally and fixed onto a resin. To investigate the degradation of SERCA2a, tissue fragments were cultured for 7-10 days in RPMI-1640 medium containing 20% (v/v) FCS. The medium was replaced every 48 hours.
Vascular smooth muscle cells (VSMCs) were homogenized in a minimal volume of 50 mM Tris-HCl, pH 7.4, supplemented with a broad-spectrum protease inhibitor cocktail (Calbiochem). The proteins were separated by SDS-PAGE and then transferred to polyvinylidene fluoride membranes (Schleicher & Schuell). After blocking with 5% (w/v) non-fat milk for 1 hour and washing with TBST, the membranes were incubated with antibodies against SERCA2a, SERCA2b (21st century biochemical), PCNA (abcam), GAPDH (Sigma-Aldrich), phospho-eNOS, eNOS, phospho-eIF2α, eIF2α (cell signaling), Vimentin, α-SMA, BMPR2 (Santa cruz), phospho-Akt, Akt (cell signaling), phospho-phospholamban (Merck), and Phospholamban (cell signaling). The membranes were then incubated with horseradish peroxidase-conjugated secondary antibodies (Jackson ImmunoResearch, West Grove, Pa., USA) and developed using a chemiluminescent substrate (Dogen). The blots were scanned and quantified using LAS software.

[1] = system: interaction of PP1 and Akt; experiment: PP1 immunoprecipitation of pulmonary tissue lysate; assay type: binding; conditions: ψPLB-SE added upon the precipitation
Description: FIGS. 16a, 16b and 16c. (16a-16b) PAECs were treated with 3 μM ψPLB-SE for 1 hour, and protein expression was quantitatively analyzed through western blotting using antibodies against Phospho-eNOS (ser1177), total eNOS, phospho-Akt (Ser473, Thr308), total Akt, and GAPDH. (16c) The pulmonary tissue lysate was subjected to immunoprecipitation using PP1 antibody to investigate the interactions of PP1 with eNOS and Akt depending on the presence or absence of the treatment with ψPLB-SE using respective antibodies therefor.
In order to intensively investigate the interactions of PP1 with eNOS and Akt, the pulmonary tissue lysate was subjected to immunoprecipitation using an antibody against PP1, and the effects of ψPLB-SE on the interactions were investigated by adding ψPLB-SE upon the precipitation. […] The activation of eNOS through the inhibition of the interaction between PP1 and Akt was supplemented through the experiments on the inhibition of the high-order kinase of Akt. The phosphorylation increases of Akt and eNOS due to the inhibition of dephosphorylation were investigated by offsetting the phosphorylation conditions of Akt through the treatment with LY294002, which is an inhibitor of phosphoinositide-3-kinase (PI3K), a known high-order kinase of Akt, at a concentration of 50 μM, followed by ψPLB-SE treatment. […]

[2] = system: pulmonary arterial smooth muscle cells (PASMCs); experiment: PASMC proliferation (PCNA western blotting, cell proliferation assay); assay type: cell-based; conditions: synthetic phenotype induction
Description: FIGS. 19a and 19b. […] (19a) Protein expression was quantitatively analyzed through western blotting using antibodies against PCNA and GAPDH 12 and 24 hours after the treatment. (19b) Cell proliferation assay was performed using EZ-CyTox cell viability assay kit.
The rat aortic smooth muscle cells (RASMCs) were isolated from the medial layer of the thoracic aorta derived from male Sprague-Dawley rats (body weight, 180-200 g) by an enzymatic reaction with collagenase (50 U/mL, Worthington) and pancreatic elastase (0.25 mg/mL, Sigma-Aldrich) for 4 hours at 37. The cells were collected and resuspended in DMEM containing 20% (v/v) fetal bovine serum. The resuspension was then plated on collagen I (Sigma-Aldrich)-coated glass coverslips and incubated at 37 in an atmosphere of 5% (v/v) CO2 and 95% (v/v) air. Human coronary smooth muscle cells (HCSMCs), pulmonary arterial endothelial cells (PAECs), and pulmonary arterial smooth muscle cells (PASMCs) were purchased from Lonza and cultured in EBM or SmBM (Lonza) supplemented with 0.5 mg/mL hEGF, […], 1 mg/mL hFGF, […] gentamicin/amphotericin-B, and 5% fetal bovine serum. […]
Vascular smooth muscle cells (VSMCs) were homogenized in a minimal volume of 50 mM Tris-HCl, pH 7.4, supplemented with a broad-spectrum protease inhibitor cocktail (Calbiochem). […] The blots were scanned and quantified using LAS software.

Sequence: RAETIEMPQ (not fully specified) [ψPLB-SE, 9-mer PP1 decoy peptide mimicking phosphorylated PLB; conjugated via GGG linker to cell penetrating peptide dNP2 or TAT]
- increased migratory activity of RASMCs (RASMCs; synthetic conditions (10% FBS)): inhibited
- increased migratory activity of RASMCs (RASMCs; treatment with PDGF-BB 10 ng/ml): inhibited
- injury-dependent reduction of SERCA2a in VSMCs (SERCA2a): completely inhibited
- interaction of Akt with PP1 (immunoprecipitation) [1]: attenuated
- cell proliferation (cell proliferation assay) [2]: inhibiting cell proliferation
- expression of PCNA [2]: attenuated
